PubChem BioAssay AID2060602 (Molecular Pharmacology Branch, DTP, NCI, 2025)
One block for each compound: values may come before it.

Test system: 648629-189-R-J1-PDC complex spheroids viability
Experiment: Anticancer human tumor 648629-189-R-J1-PDC patient-derived bladder carcinoma cell line growth inhibition [CLK]
Conditions: for IC50: curve of first compound; for viability, T/C: stronger effect = lower value
Outline: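 Patient-derived tumor cells grown as complex spheroids with HUVEC endothelial cells and mesenchymal stem cells, treated with drug combinations. Concentrations descend in half-log steps from near clinical Cmax, or from 10 microM if Cmax unknown.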

[1] = second compound 0.0316 µM, first compound 0.00316 µM
[2] = second compound 0.0316 µM, first compound 0.01 µM
[3] = second compound 0.0316 µM, first compound 0.0316 µM
[4] = second compound 0.0316 µM, first compound 0.1 µM
[5] = second compound 0.0316 µM, first compound 0.316 µM
[6] = second compound 0.0316 µM, first compound 1 µM
[7] = second compound 0.1 µM, first compound 0.00316 µM
[8] = second compound 0.1 µM, first compound 0.01 µM
[9] = second compound 0.1 µM, first compound 0.0316 µM
[10] = second compound 0.1 µM, first compound 0.1 µM
[11] = second compound 0.1 µM, first compound 0.316 µM
[12] = second compound 0.1 µM, first compound 1 µM
[13] = second compound 0.316 µM, first compound 0.00316 µM
[14] = second compound 0.316 µM, first compound 0.01 µM
[15] = second compound 0.316 µM, first compound 0.0316 µM
[16] = second compound 0.316 µM, first compound 0.1 µM
[17] = second compound 0.316 µM, first compound 0.316 µM
[18] = second compound 0.316 µM, first compound 1 µM
[19] = second compound 1 µM, first compound 0.00316 µM
[20] = second compound 1 µM, first compound 0.01 µM
[21] = second compound 1 µM, first compound 0.0316 µM
[22] = second compound 1 µM, first compound 0.1 µM
[23] = second compound 1 µM, first compound 0.316 µM
[24] = second compound 1 µM, first compound 1 µM
[25] = second compound 3.16 µM, first compound 0.00316 µM
[26] = second compound 3.16 µM, first compound 0.01 µM
[27] = second compound 3.16 µM, first compound 0.0316 µM
[28] = second compound 3.16 µM, first compound 0.1 µM
[29] = second compound 3.16 µM, first compound 0.316 µM
[30] = second compound 3.16 µM, first compound 1 µM
[31] = second compound 10 µM, first compound 0.00316 µM
[32] = second compound 10 µM, first compound 0.01 µM
[33] = second compound 10 µM, first compound 0.0316 µM
[34] = second compound 10 µM, first compound 0.1 µM
[35] = second compound 10 µM, first compound 0.316 µM
[36] = second compound 10 µM, first compound 1 µM
[37] = second compound 0.0316 µM, first compound 3.16 µM
[38] = second compound 0.0316 µM, first compound 10 µM
[39] = second compound 0.1 µM, first compound 3.16 µM
[40] = second compound 0.1 µM, first compound 10 µM
[41] = second compound 0.316 µM, first compound 3.16 µM
[42] = second compound 0.316 µM, first compound 10 µM
[43] = second compound 1 µM, first compound 3.16 µM
[44] = second compound 1 µM, first compound 10 µM
[45] = second compound 3.16 µM, first compound 3.16 µM
[46] = second compound 3.16 µM, first compound 10 µM
[47] = second compound 10 µM, first compound 3.16 µM
[48] = second compound 10 µM, first compound 10 µM
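For viability, T/C in this document: drug exposure lasted seven days before viability readout; 100% = DMSO vehicle control wells.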

SMILES: Cn1ncnc1[C@H]1c2n[nH]c(=O)c3cc(F)cc(c23)N[C@@H]1c1ccc(F)cc1 + CNC(=O)c1ccc(Nc2nc(OC3CCCC3)c3c(-c4ccc5nc(C)oc5c4)c[nH]c3n2)c(OC)c1
IC50 (second compound 0.0316 µM): > 100 nM
IC50 (second compound 0.1 µM): > 100 nM
IC50 (second compound 0.316 µM): < 0.316 nM
IC50 (second compound 1 µM): < 0.316 nM
IC50 (second compound 3.16 µM): < 0.316 nM
IC50 (second compound 10 µM): < 0.316 nM
viability, T/C (second compound 0.0316 µM, first compound 0.000316 µM): 112%
viability, T/C (second compound 0.0316 µM, first compound 0.001 µM): 98.1%
viability, T/C [1]: 95.4%
viability, T/C [2]: 102%
viability, T/C [3]: 81.4%
viability, T/C [4]: 73.6%
viability, T/C (second compound 0.1 µM, first compound 0.000316 µM): 86%
viability, T/C (second compound 0.1 µM, first compound 0.001 µM): 86.3%
viability, T/C [7]: 81.5%
viability, T/C [8]: 83%
viability, T/C [9]: 68.3%
viability, T/C [10]: 75.8%
viability, T/C (second compound 0.316 µM, first compound 0.000316 µM): 25.7%
viability, T/C (second compound 0.316 µM, first compound 0.001 µM): 25.6%
viability, T/C [13]: 30%
viability, T/C [14]: 21%
viability, T/C [15]: 22.4%
viability, T/C [16]: 21.3%
viability, T/C (second compound 1 µM, first compound 0.000316 µM): 18.4%
viability, T/C (second compound 1 µM, first compound 0.001 µM): 18.9%
viability, T/C [19]: 17.2%
viability, T/C [20]: 18.1%
viability, T/C [21]: 15.6%
viability, T/C [22]: 12.5%
viability, T/C (second compound 3.16 µM, first compound 0.000316 µM): 19.2%
viability, T/C (second compound 3.16 µM, first compound 0.001 µM): 18.4%
viability, T/C [25]: 19.3%
viability, T/C [26]: 16.3%
viability, T/C [27]: 17%
viability, T/C [28]: 16.6%
viability, T/C (second compound 10 µM, first compound 0.000316 µM): 18.1%
viability, T/C (second compound 10 µM, first compound 0.001 µM): 19.5%
viability, T/C [31]: 20.3%
viability, T/C [32]: 17.7%
viability, T/C [33]: 19.4%
viability, T/C [34]: 14.8%

SMILES: O=C(c1cc(Cc2n[nH]c(=O)c3ccccc23)ccc1F)N1CCN(C(=O)C2CC2)CC1 + CNC(=O)c1ccc(Nc2nc(OC3CCCC3)c3c(-c4ccc5nc(C)oc5c4)c[nH]c3n2)c(OC)c1
IC50 (second compound 0.0316 µM): > 10000 nM
IC50 (second compound 0.1 µM): > 10000 nM
IC50 (second compound 0.316 µM): < 31.6 nM
IC50 (second compound 1 µM): < 31.6 nM
IC50 (second compound 3.16 µM): < 31.6 nM
IC50 (second compound 10 µM): < 31.6 nM
viability, T/C [3]: 92.3%
viability, T/C [4]: 101%
viability, T/C [5]: 103%
viability, T/C [6]: 106%
viability, T/C [37]: 83.3%
viability, T/C [38]: 74.9%
viability, T/C [9]: 93.6%
viability, T/C [10]: 95.1%
viability, T/C [11]: 89.3%
viability, T/C [12]: 86.9%
viability, T/C [39]: 82.9%
viability, T/C [40]: 70.8%
viability, T/C [15]: 26.9%
viability, T/C [16]: 29%
viability, T/C [17]: 27.1%
viability, T/C [18]: 29.1%
viability, T/C [41]: 28.7%
viability, T/C [42]: 27.4%
viability, T/C [21]: 18.8%
viability, T/C [22]: 17.3%
viability, T/C [23]: 20.1%
viability, T/C [24]: 17.2%
viability, T/C [43]: 17.6%
viability, T/C [44]: 18.6%
viability, T/C [27]: 15.9%
viability, T/C [28]: 18.9%
viability, T/C [29]: 19%
viability, T/C [30]: 20.3%
viability, T/C [45]: 19%
viability, T/C [46]: 19.2%
viability, T/C [33]: 23.8%
viability, T/C [34]: 21.7%
viability, T/C [35]: 22%
viability, T/C [36]: 19%
viability, T/C [47]: 20.2%
viability, T/C [48]: 21.1%

SMILES: O=c1[nH]cc(F)c(=O)[nH]1 + CNC(=O)c1ccc(Nc2nc(OC3CCCC3)c3c(-c4ccc5nc(C)oc5c4)c[nH]c3n2)c(OC)c1
IC50 (second compound 0.0316 µM): 881 nM
IC50 (second compound 0.1 µM): 535 nM
IC50 (second compound 0.316 µM): < 31.6 nM
IC50 (second compound 1 µM): < 31.6 nM
IC50 (second compound 3.16 µM): < 31.6 nM
IC50 (second compound 10 µM): < 31.6 nM
viability, T/C [3]: 107%
viability, T/C [4]: 95.1%
viability, T/C [5]: 77.4%
viability, T/C [6]: 45.8%
viability, T/C [37]: 33.2%
viability, T/C [38]: 32.5%
viability, T/C [9]: 79.9%
viability, T/C [10]: 86.9%
viability, T/C [11]: 64.8%
viability, T/C [12]: 32.2%
viability, T/C [39]: 23.9%
viability, T/C [40]: 22.9%
viability, T/C [15]: 21%
viability, T/C [16]: 23.6%
viability, T/C [17]: 22.2%
viability, T/C [18]: 11.9%
viability, T/C [41]: 12.8%
viability, T/C [42]: 10.3%
viability, T/C [21]: 15.8%
viability, T/C [22]: 18.7%
viability, T/C [23]: 15.7%
viability, T/C [24]: 11.2%
viability, T/C [43]: 9.79%
viability, T/C [44]: 9.97%
viability, T/C [27]: 21.1%
viability, T/C [28]: 20.4%
viability, T/C [29]: 18.6%
viability, T/C [30]: 10.2%
viability, T/C [45]: 10.9%
viability, T/C [46]: 10.6%
viability, T/C [33]: 17.8%
viability, T/C [34]: 14.8%
viability, T/C [35]: 17.4%
viability, T/C [36]: 11.4%
viability, T/C [47]: 11.5%
viability, T/C [48]: 9.63%

Now those with a lower IC50 (second compound 0.0316 µM), led by results:

IC50 (second compound 0.0316 µM): < 3.16 nM
IC50 (second compound 0.1 µM): < 3.16 nM
IC50 (second compound 0.316 µM): < 3.16 nM
IC50 (second compound 1 µM): < 3.16 nM
IC50 (second compound 3.16 µM): < 3.16 nM
IC50 (second compound 10 µM): < 3.16 nM
SMILES: CCc1c2c(nc3ccc(O)cc13)-c1cc3c(c(=O)n1C2)COC(=O)[C@]3(O)CC + CNC(=O)c1ccc(Nc2nc(OC3CCCC3)c3c(-c4ccc5nc(C)oc5c4)c[nH]c3n2)c(OC)c1
viability, T/C [1]: 30.3%
viability, T/C [2]: 11.5%
viability, T/C [3]: 8.79%
viability, T/C [4]: 5.84%
viability, T/C [5]: 5.59%
viability, T/C [6]: 4.59%
viability, T/C [7]: 30.1%
viability, T/C [8]: 10.5%
viability, T/C [9]: 7.18%
viability, T/C [10]: 5.66%
viability, T/C [11]: 5.26%
viability, T/C [12]: 2.75%
viability, T/C [13]: 14.1%
viability, T/C [14]: 8.48%
viability, T/C [15]: 7.05%
viability, T/C [16]: 4.87%
viability, T/C [17]: 5.55%
viability, T/C [18]: 4.88%
viability, T/C [19]: 11.9%
viability, T/C [20]: 10.9%
viability, T/C [21]: 8.46%
viability, T/C [22]: 5.17%
viability, T/C [23]: 4.53%
viability, T/C [24]: 3.56%
viability, T/C [25]: 14.8%
viability, T/C [26]: 13.1%
viability, T/C [27]: 9.98%
viability, T/C [28]: 6.24%
viability, T/C [29]: 7.38%
viability, T/C [30]: 5.35%
viability, T/C [31]: 17.2%
viability, T/C [32]: 13.8%
viability, T/C [33]: 10.4%
viability, T/C [34]: 7.91%
viability, T/C [35]: 6.48%
viability, T/C [36]: 4.98%

IC50 (second compound 0.0316 µM): 38.2 nM
IC50 (second compound 0.1 µM): 42.1 nM
IC50 (second compound 0.316 µM): < 31.6 nM
IC50 (second compound 1 µM): < 31.6 nM
IC50 (second compound 3.16 µM): < 31.6 nM
IC50 (second compound 10 µM): < 31.6 nM
SMILES: Nc1ccn(C2OC(CO)C(O)C2(F)F)c(=O)n1 (stereo not given) + CNC(=O)c1ccc(Nc2nc(OC3CCCC3)c3c(-c4ccc5nc(C)oc5c4)c[nH]c3n2)c(OC)c1
viability, T/C [3]: 56.8%
viability, T/C [4]: 16.1%
viability, T/C [5]: 10.6%
viability, T/C [6]: 8.41%
viability, T/C [37]: 8.43%
viability, T/C [38]: 6.82%
viability, T/C [9]: 58.7%
viability, T/C [10]: 23.9%
viability, T/C [11]: 10.1%
viability, T/C [12]: 8.46%
viability, T/C [39]: 7.09%
viability, T/C [40]: 5.88%
viability, T/C [15]: 18.1%
viability, T/C [16]: 14.3%
viability, T/C [17]: 8.69%
viability, T/C [18]: 7.21%
viability, T/C [41]: 7.97%
viability, T/C [42]: 6.5%
viability, T/C [21]: 18.2%
viability, T/C [22]: 13.3%
viability, T/C [23]: 11.8%
viability, T/C [24]: 8.47%
viability, T/C [43]: 9.1%
viability, T/C [44]: 7.07%
viability, T/C [27]: 16.2%
viability, T/C [28]: 14.8%
viability, T/C [29]: 11.2%
viability, T/C [30]: 11.7%
viability, T/C [45]: 11.2%
viability, T/C [46]: 7.1%
viability, T/C [33]: 18.1%
viability, T/C [34]: 18%
viability, T/C [35]: 14.7%
viability, T/C [36]: 10.1%
viability, T/C [47]: 9.44%
viability, T/C [48]: 7.39%
